The term IC50 denotes the concentration that gives 50% inhibition.

This is an account of results in PMC9322123, “Design and Synthesis of New Pyrimidine-Quinolone Hybrids as Novel hLDHA Inhibitors” (Pharmaceuticals, 2022).

Read-outs that look alike come from different tables or passages of the source.

The target of test [1] is T1, hLDHA (Homo sapiens, UniProt P00338).
T1 construct: purchased Abcam
The experiment in a line: hLDHA enzymatic assay (kinetic fluorometric, pyruvate substrate, NADH co-factor). The class given is biochemical. The settings on record: for IC50: hLDHA, 1 mM pyruvate, 151 µM β-NADH, compounds 0.048–100 µM, n = 3. As to the method:
The inhibitory activity of the pyrimidine-quinolone hybrids 10, 15, 19, and 24–31(a–c) against the hLDHA enzyme was measured by a kinetic spectrofluorometric assay.
hLDHA activity was determined throughout a fluorometric method with pyruvate as substrate and NADH co-factor, as previously reported and modified as described here: in each well, the final volume was set to 200 µL, and the final concentrations were 100 mM potassium phosphate buffer, 0.041 units/mL hLDHA (95%, specific activity >300 units/mg and concentration of 0.5 mg/mL, Abcam, Cambridge, United Kingdom), 151 µM β-NADH, 1 mM pyruvate (saturated conditions), and DMSO solutions (2%, v/v) of pure compounds at concentrations in the range of 0.048–100 µM. The reaction was initiated by the addition of pyruvate, and the NADH concentration decrease was measured for 10 min in a TECAN Infinite 200 Pro M Plex fluorescence plate reader at 28 °C, with excitation at 340 nm and emission at 460 nm. The percentage of activity for each measure was calculated by comparison between the maximum slope of each compound concentration and the maximum slope when no inhibitor (DMSO only) was in the well (100% enzymatic activity). The compound 3-[[3[(cyclopropylamino)sulfonyl]-7-(2,4-dimethoxy-5-pyrimidinyl)-4-quinolinyl]amino]-5-(3,5-difluorophenoxy)benzoic acid (GSK 2837808 A, Tocris, Minneapolis, MN, USA) was used as a positive control.
The measurements were obtained thrice, and data were expressed as the mean ± SD of n = 3 replicates for IC50 values. As-obtained data were later plotted in GraphPad Prism version 5.00 for Windows (GraphPad Software, La Jolla, CA, USA). Nonlinear regression analysis was chosen for dose response curve, representing the logarithm of inhibitor concentration vs. normalized enzymatic activity in order to calculate IC50 values.

The target of test [2] is T1, hLDHA. The arrangement: method as in PMID 25466195. The settings on record: W31, ligand of complex 4R68; cited from earlier work.

With `O=c1[nH]c2ccccc2cc1CSc1ccc(Nc2nccc(-c3ccc4ccccc4c3)n2)cc1` [Compound 30a, 3-(((4-((4-(Naphthalen-2-yl)pyrimidin-2-yl)amino)phenyl)thio)methyl)quinolin-2(1H)-one], on hLDHA [1], it took 62.9 µM to reach half-maximal inhibition (IC50).
Compound `O=c1[nH]c2ccc(Cl)cc2cc1CSc1ccccc1Nc1nccc(-c2ccc3c(c2)OCO3)n1` [Compound 27b, 3-(((2-((4-(Benzo[d][1,3]dioxol-5-yl)pyrimidin-2-yl)amino)phenyl)thio)methyl)-6-chloroquinolin-2(1H)-one] gave an IC50 against hLDHA [1] of 89 µM.
Turning to `COc1ccc2[nH]c(=O)c(CSc3ccc(Nc4nccc(-c5ccc(Cl)cc5)n4)cc3)cc2c1` [Compound 28c, 3-(((4-((4-(4-Chlorophenyl)pyrimidin-2-yl)amino)phenyl)thio)methyl)-6-methoxyquinolin-2(1H)-one], on hLDHA [1], the concentration for half-maximal inhibition (IC50) is above 100 µM.
In the case of `O=c1[nH]c2ccccc2cc1CSc1ccc(Nc2nccc(-c3ccc(C(F)(F)F)cc3)n2)cc1` [Compound 29a, 3-(((4-((4-(4-(Trifluoromethyl)phenyl)pyrimidin-2-yl)amino)phenyl)thio)methyl)quinolin-2(1H)-one], the IC50 against hLDHA [1] was above 100 µM.
Still for that read-out and setting: with `O=c1[nH]c2ccc(Cl)cc2cc1CSc1ccc(Nc2nccc(-c3ccc4c(c3)OCO4)n2)cc1` [Compound 31b, 3-(((4-((4-(Benzo[d][1,3]dioxol-5-yl)pyrimidin-2-yl)amino)phenyl)thio)methyl)-6-chloroquinolin-2(1H)-one] the figure was 49.9 µM.
The same measure, in the same setting: with `O=c1[nH]c2ccccc2cc1CSc1cccc(Nc2nccc(-c3ccc4ccccc4c3)n2)c1` [Compound 35a, 3-(((3-((4-(Naphthalen-2-yl)pyrimidin-2-yl)amino)phenyl)thio)methyl)quinolin-2(1H)-one] the figure was 19.6 µM; with `O=c1[nH]c2ccc(Cl)cc2cc1CSc1ccccc1Nc1nccc(-c2ccc(Cl)cc2)n1` [Compound 24b, 6-Chloro-3-(((2-((4-(4-chlorophenyl)pyrimidin-2-yl)amino)phenyl)thio)meth-yl)quinolin-2(1H)-one], 34.8 µM; with `O=c1[nH]c2ccc(Cl)cc2cc1CSc1ccc(Nc2nccc(-c3ccc(Cl)cc3)n2)cc1` [Compound 28b, 6-Chloro-3-(((4-((4-(4-chlorophenyl)pyrimidin-2-yl)amino)phenyl)thio)meth-yl)quinolin-2(1H)-one], above 100 µM.
In the case of `O=c1[nH]c2ccccc2cc1CSc1ccc(Nc2nccc(-c3ccc4c(c3)OCO4)n2)cc1` [Compound 31a, 3-(((4-((4-(Benzo[d][1,3]dioxol-5-yl)pyrimidin-2-yl)amino)phenyl)thio)methyl)quinolin-2(1H)-one], at hLDHA [1], the “inhibitory activity against hLDHA (in words)” value was “inactive” and the half-inhibitory concentration (IC50) is above 100 µM.
For `O=c1[nH]c2ccc(Cl)cc2cc1CSc1cccc(Nc2nccc(-c3ccc4ccccc4c3)n2)c1` [Compound 35b, 6-Chloro-3-(((3-((4-(naphthalen-2-yl)pyrimidin-2-yl)amino)phenyl)thio)me-thyl)quinolin-2(1H)-one], half-maximal inhibition against hLDHA [1] (IC50) required 24.6 µM.
For `COc1ccc2[nH]c(=O)c(CSc3ccc(Nc4nccc(-c5ccc6ccccc6c5)n4)cc3)cc2c1` [Compound 30c, 6-Methoxy-3-(((4-((4-(naphthalen-2-yl)pyrimidin-2-yl)amino)phenyl)thio)methyl)quinolin-2(1H)-one], the half-inhibitory concentration (IC50) on hLDHA [1] was above 100 µM.
`O=c1[nH]c2ccccc2cc1COc1ccccc1Oc1nccc(-c2ccc(Cl)cc2)n1` [Compound 19, 3-((2-((4-(4-Chlorophenyl)pyrimidin-2-yl)oxy)phenoxy)methyl)quinolin-2(1H)-one] gave a half-inhibitory concentration (IC50) at hLDHA [1] above 100 µM.
For `O=c1[nH]c2ccccc2cc1CSc1ccc(Nc2nccc(-c3ccc(Cl)cc3)n2)cc1` [Compound 28a, 3-(((4-((4-(4-Chlorophenyl)pyrimidin-2-yl)amino)phenyl)thio)methyl)quinolin-2(1H)-one], the IC50 against hLDHA [1] is above 100 µM.
In turn, `COc1ccc2[nH]c(=O)c(CSc3ccc(Nc4nccc(-c5ccc(C(F)(F)F)cc5)n4)cc3)cc2c1` [Compound 29c, 6-Methoxy-3-(((4-((4-(4-(trifluoromethyl)phenyl)pyrimidin-2-yl)amino)phenyl)thio)methyl)quinolin-2(1H)-one] showed an IC50 against hLDHA [1] above 100 µM.
Still for that read-out and setting: with `O=c1[nH]c2ccc(Cl)cc2cc1CSc1ccc(Nc2nccc(-c3ccc(C(F)(F)F)cc3)n2)cc1` [Compound 29b, 6-Chloro-3-(((4-((4-(4-(trifluoromethyl)phenyl)pyrimidin-2-yl)amino)phenyl)thio)methyl)quinolin-2(1H)-one] the figure was 83.2 µM.
As to `COc1ccc2[nH]c(=O)c(CSc3ccc(Nc4nccc(-c5ccc6c(c5)OCO6)n4)cc3)cc2c1` [Compound 31c, 3-(((4-((4-(Benzo[d][1,3]dioxol-5-yl)pyrimidin-2-yl)amino)phenyl)thio)methyl)-6-methoxyquinolin-2(1H)-one], on hLDHA [1], the “inhibitory activity against hLDHA (in words)” value is “inactive” and the IC50 is above 100 µM.
The compound `O=c1[nH]c2ccccc2cc1CSc1ccccc1Nc1nccc(-c2ccc(Cl)cc2)n1` [Compound 24a, 3-(((2-((4-(4-Chlorophenyl)pyrimidin-2-yl)amino)phenyl)thio)methyl)quinolin-2(1H)-one] came in with an IC50 at hLDHA [1] of 31.5 µM.
At hLDHA [1], `COc1ccc2[nH]c(=O)c(CSc3ccccc3Nc3nccc(-c4ccc(Cl)cc4)n3)cc2c1` [Compound 24c, 3-(((2-((4-(4-Chlorophenyl)pyrimidin-2-yl)amino)phenyl)thio)methyl)-6-methoxyquinolin-2(1H)-one] showed a half-inhibitory concentration (IC50) of 79.1 µM.
Compound `COc1ccc2[nH]c(=O)c(CSc3cccc(Nc4nccc(-c5ccc6ccccc6c5)n4)c3)cc2c1` [Compound 35c, 6-Methoxy-3-(((3-((4-(naphthalen-2-yl)pyrimidin-2-yl)amino)phenyl)thio)methyl)quinolin-2(1H)-one] came in with an IC50 on hLDHA [1] of 50.1 µM.
On the same count and under the same terms, with `COc1ccc2[nH]c(=O)c(CSc3ccccc3Nc3nccc(-c4ccc5ccccc5c4)n3)cc2c1` [Compound 26c, 6-Methoxy-3-(((2-((4-(naphthalen-2-yl)pyrimidin-2-yl)amino)phenyl)thio)methyl)quinolin-2(1H)-one] the figure was 27.7 µM; with `O=c1[nH]c2ccccc2cc1CSc1ccccc1Nc1nccc(-c2ccc3c(c2)OCO3)n1` [Compound 27a, 3-(((2-((4-(Benzo[d][1,3]dioxol-5-yl)pyrimidin-2-yl)amino)phenyl)thio)methyl)quinolin-2(1H)-one], above 100 µM.
As for `O=c1[nH]c2ccc(Cl)cc2cc1CSc1ccccc1Nc1nccc(-c2ccc(C(F)(F)F)cc2)n1` [Compound 25b, 6-Chloro-3-(((2-((4-(4-(trifluoromethyl)phenyl)pyrimidin-2-yl)amino)phenyl)thio)methyl)quinolin-2(1H)-one], on hLDHA [1], the IC50 is 42.3 µM.
On the same count and under the same terms, with `COc1ccc2[nH]c(=O)c(CSc3ccccc3Nc3nccc(-c4ccc5c(c4)OCO5)n3)cc2c1` [Compound 27c, 3-(((2-((4-(Benzo[d][1,3]dioxol-5-yl)pyrimidin-2-yl)amino)phenyl)thio)methyl)-6-methoxyquinolin-2(1H)-one] the figure was 60 µM; with `O=c1[nH]c2ccccc2cc1CSc1ccccc1Nc1nccc(-c2ccc3ccccc3c2)n1` [Compound 26a, 3-(((2-((4-(Naphthalen-2-yl)pyrimidin-2-yl)amino)phenyl)thio)methyl)quinolin-2(1H)-one], 17.8 µM.
In the case of `C[C@H](OC(=O)Cc1ccc(Cl)c(SC2=C(O)C[C@@H](c3c(Cl)cccc3Cl)CC2=O)c1)c1ccccc1` [Compound W31], the concentration for half-maximal inhibition (IC50) at hLDHA [2] was 0.006 µM.
`O=c1[nH]c2ccccc2cc1CSc1ccccc1Nc1nccc(-c2ccc(C(F)(F)F)cc2)n1` [Compound 25a, 3-(((2-((4-(4-(Trifluoromethyl)phenyl)pyrimidin-2-yl)amino)phenyl)thio)methyl)quinolin-2(1H)-one] came in with an IC50 at hLDHA [1] of 26.9 µM.
On hLDHA [1], `O=c1[nH]c2ccc(Cl)cc2cc1CSc1ccc(Nc2nccc(-c3ccc4ccccc4c3)n2)cc1` [Compound 30b, 6-Chloro-3-(((4-((4-(naphthalen-2-yl)pyrimidin-2-yl)amino)phenyl)thio)methyl)quinolin-2(1H)-one] had a concentration for half-maximal inhibition (IC50) above 100 µM.
The compound `O=c1[nH]c2ccc(Cl)cc2cc1CSc1ccccc1Nc1nccc(-c2ccc3ccccc3c2)n1` [Compound 26b, 6-Chloro-3-(((2-((4-(naphthalen-2-yl)pyrimidin-2-yl)amino)phenyl)thio)me-thyl)quinolin-2(1H)-one] gave a half-inhibitory concentration (IC50) against hLDHA [1] of 20.3 µM.
On hLDHA [1], `COc1ccc2[nH]c(=O)c(CSc3ccccc3Nc3nccc(-c4ccc(C(F)(F)F)cc4)n3)cc2c1` [Compound 25c, 6-Methoxy-3-(((2-((4-(4-(trifluoromethyl)phenyl)pyrimidin-2-yl)amino)phenyl)thio)methyl)quinolin-2(1H)-one] registered an IC50 of 71.8 µM.
